From patent EP1200395B1, “UREA DERIVATIVES AS INHIBITORS OF CCR-3 RECEPTOR” (KIRIN BEER KABUSHIKI KAISHA, priority 1999, dated 2001) come the findings set out here.

The test system of experiment [1] is bronchoconstriction provoked by acetylcholine. In words: Airway hyperreactivity: bronchoconstriction provoked by acetylcholine (murine asthma model, OVA-immunized mice). The class given is in vivo, Male BALB/c mice. The note with it: administered intraperitoneally for 9 days, starting on the first day of antigen inhalation; Figure 2A. The protocol: (§1) Male BALB/c mice were immunized by an intraperitoneal injection of 10 µg OVA adsorbed to 1 mg aluminum hydroxide gel (alum). A booster injection of the same dose of alum-adsorbed OVA was given 5 days later. Unitnmunized control mice received saline.
(§2) Twelve days after primary immunization, both the immunized and unimmunized mice were exposed to aerosolized antigen. Aerosolization of OVA was performed using a nose-only aerosol chamber adapted for mice. Animals were exposed for 10 minutes to 5 mg/ml OVA aerosolized by an ultrasonic nebulizer (NE-U12, Omron, Tokyo, Japan) driven by a vacuum pump. The antigen bronchoprovocation was repeated on day 16 and day 20 under the same conditions. Compound No. 298 (CPD No. 298) was dissolved in saline containing 2 % DMSO and 2 % Cremophore and administered intraperitoneally for 9 days, starting on the first day of antigen inhalation.
Twenty-four hours after the final aerosol exposure, bronchoconstriction was measured by the overflow method of Konzett and Rössler. […] Bronchoconstriction was recorded on a flatbed recorder (Model FBR-252A, TOA Electronics Ltd., Tokyo, Japan). […]

The next experiment has as its target T1, CCR-3 (Homo sapiens, UniProt P51677).
T1 sequence (P51677 1-355): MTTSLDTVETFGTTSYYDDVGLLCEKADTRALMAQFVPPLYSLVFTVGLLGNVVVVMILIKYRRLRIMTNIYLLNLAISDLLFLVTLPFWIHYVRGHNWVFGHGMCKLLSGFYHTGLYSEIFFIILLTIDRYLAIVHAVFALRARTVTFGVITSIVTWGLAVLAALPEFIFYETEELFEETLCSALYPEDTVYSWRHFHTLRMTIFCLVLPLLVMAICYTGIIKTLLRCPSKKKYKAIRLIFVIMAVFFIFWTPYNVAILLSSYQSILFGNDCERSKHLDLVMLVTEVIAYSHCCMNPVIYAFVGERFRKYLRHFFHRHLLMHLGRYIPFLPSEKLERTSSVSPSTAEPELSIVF
In words: Eotaxin-induced chemotaxis of CCR-3 transfectant cells (CCR3/U937). Particulars: U-937; 10 µM test compound; eotaxin 1 x 10^-9 M; CCR3/U937 cells (Table 3c). The class given is cell-based. More on the design: expressed in transfected cells; host or cells: U937.

Experiment [2] deals with collagen-induced arthritis. In words: Type II collagen-induced arthritis in mice, clinical score. The format is in vivo, Male DBA/1 mice. Particulars: 20 mg/kg per day subcutaneously starting at 2nd immunization; versus control vehicle; Figure 1A/1B.
For experiment [3], the system named is eosinophil infiltration to bronchoalveolar lavage fluid (BALF). In words: Eosinophil infiltration in bronchoalveolar lavage fluid (BALF), murine asthma model. The format is in vivo, Male BALB/c mice. The note with it: administered intraperitoneally for 9 days; two hundred cells counted per slide; Figure 2C. The protocol: as §1, §2
Immediately after the measurement of airway reactivity to acethycholine, BALF was collected by lavaging whole-lung three times with 0.7-ml aliquots of physiological saline containing 0.1 % BSA via the tracheal cannula while gently massaging the thorax. The BALF recovered from one mouse was pooled, centrifuged, and the cells were resuspended in 100 µl saline containing 0.1 % BSA. Cell numbers were determined using a hemocytometer and 2 x 10^4 cells were cytecetrifuged onto a glass slide. […]

What is called inhibition is the drop in the measured response relative to a control, in per cent. High values mean a response far below the control, low ones a response near the control.

As to `CC[N+](CCCNC(=O)Nc1ccccc1)(CCc1ccc(Cl)cc1)Cc1ccc(Cl)cc1.[I-]` (stereo not shown) [Compound 298, [3-(Phenylureido)propyl][2-(4-chlorophenyl)ethyl](4-chlorobenzyl)ethylammonium iodide], the “bronchoconstriction provoked by acetylcholine” value in experiment [1] is given as “Inhibition of bronchoconstriction”. This compound registered an inhibition at 10 µM at CCR-3 of 100%. The “clinical score, collagen-induced arthritis” value in experiment [2] is “marked prevention in clinical score”. In experiment [3], the “eosinophil infiltration to bronchoalveolar lavage fluid (BALF)” value is recorded as “significantly suppressed eosinophil infiltration”.
